Results reported in PMC6934184, “Selective DNA-PKcs inhibition extends the therapeutic index of localized radiotherapy and chemotherapy” (The Journal of Clinical Investigation, 2019).

Target: T1, EGFR (ErbB1) L861Q (Homo sapiens, UniProt P00533, L861Q)
T1 construct: purchased Thermo Fisher Scientific (Life Technologies) SelectScreen
Assay: SelectScreen Z'LYTE
Format: biochemical
In short: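 NU5455 was profiled across the SelectScreen Broad panel of kinase activity and binding assays. Z'LYTE reactions such as CSF1R ran at apparent Km ATP, while the Adapta CAMK1 assay used ATP listed as 10. Values are given as percent.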

T1 sequence (P00533 25-1210 L861Q): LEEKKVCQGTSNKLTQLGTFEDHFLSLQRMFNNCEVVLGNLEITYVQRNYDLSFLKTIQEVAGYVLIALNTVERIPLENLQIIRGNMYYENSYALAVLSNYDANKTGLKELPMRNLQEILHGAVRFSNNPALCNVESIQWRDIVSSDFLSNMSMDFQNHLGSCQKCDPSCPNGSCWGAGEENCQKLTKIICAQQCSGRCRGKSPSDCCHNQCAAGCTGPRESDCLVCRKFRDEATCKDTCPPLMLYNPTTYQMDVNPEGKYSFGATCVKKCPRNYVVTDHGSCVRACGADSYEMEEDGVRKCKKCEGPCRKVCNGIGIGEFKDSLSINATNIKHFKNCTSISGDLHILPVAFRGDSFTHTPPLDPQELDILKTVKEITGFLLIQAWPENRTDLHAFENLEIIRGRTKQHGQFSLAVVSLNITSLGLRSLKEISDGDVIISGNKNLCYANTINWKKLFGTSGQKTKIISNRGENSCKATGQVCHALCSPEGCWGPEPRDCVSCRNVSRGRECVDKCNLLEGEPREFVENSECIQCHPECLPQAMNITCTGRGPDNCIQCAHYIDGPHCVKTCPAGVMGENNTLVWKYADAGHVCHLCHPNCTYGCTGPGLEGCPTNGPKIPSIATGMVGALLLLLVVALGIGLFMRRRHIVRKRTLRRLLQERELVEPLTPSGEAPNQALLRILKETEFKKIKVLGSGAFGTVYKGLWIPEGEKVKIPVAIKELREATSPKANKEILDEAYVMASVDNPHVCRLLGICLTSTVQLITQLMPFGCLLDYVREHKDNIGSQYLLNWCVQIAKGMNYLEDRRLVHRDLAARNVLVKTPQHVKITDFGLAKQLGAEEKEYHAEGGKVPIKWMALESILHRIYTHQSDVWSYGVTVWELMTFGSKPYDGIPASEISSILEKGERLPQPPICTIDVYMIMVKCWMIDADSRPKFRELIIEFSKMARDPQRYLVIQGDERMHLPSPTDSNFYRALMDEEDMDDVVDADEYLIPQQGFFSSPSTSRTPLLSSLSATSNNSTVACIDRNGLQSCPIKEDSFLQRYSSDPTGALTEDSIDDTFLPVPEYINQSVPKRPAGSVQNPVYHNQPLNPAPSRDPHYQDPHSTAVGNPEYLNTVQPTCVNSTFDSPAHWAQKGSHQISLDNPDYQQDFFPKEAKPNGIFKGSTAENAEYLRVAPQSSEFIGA

How did the inhibition at 1 µM turn out when CN(C(=O)CN1CCOCC1)c1ccc2sc3c(-c4cccc5c(=O)cc(N6CC7CCC(C6)O7)oc45)cccc3c2c1 [NU5455] was run?
The inhibition at 1 µM was 2.2%.
